Reference: patent US11446319B2, “Composition containing flavonoid-cyclodextrin clathrate compound” (TAIYO KAGAKU CO., LTD., priority 2018, dated 2022)

Test system: human dermal fibroblasts
Assay type: cell-based
Conditions: 24 h
Protocol: Specifically, human dermal fibroblasts (manufactured by PromoCell) were subcultured in a 24-well plate using a medium for cells in a proportion of 3×10^4 cells/well. […] After 24 hours, the viability of the cells was analyzed.
The viability of the cells was analyzed as follows. The cells were incubated at 37° C. and 5% CO2 for 1 hour in the presence of Neutral Red (pigment) (The live cells incorporating Neutral Red, thereby making the cells distinguishable from dead cells or damaged cells, and quantifiable). Next, 50% ethanol and a solution of 0.05 M NaH2PO4 were added to the cells to thereby extract out the pigment from the cells. Thereafter, the absorbance of the cells was measured with a spectrophotometer at 540 nm, and compared to that of the cells unexposed to the light, and shown as viability (%)=(analytical value at 540 nm of the photo-irradiated cells×100/analytical value at 540 nm of the cells not irradiated with light) in Table 26.
The evaluation was made in the same manner as in Example 231 except that the composition used during the incubation for 24 hours was changed to have the components as listed in Tables 26 to 29.

SMILES: C[C@H](O)[C@H](O)[C@@H](O)[C@@H](O)C=O [rhamnose]
- viability: about 5%
